From patent US9987376B2, “Delivery system for delivery of a substance into the oral cavity” (NORINVENT AB, priority 2008, dated 2018)
Like-named read-outs stand apart in the source and are kept apart here. Values belong to the compound of their own block, whether it stands above or below them.

Columns and labels:
[1] = rat, in vivo
Procedure: White/white laboratory standard rats were used for the tests. In test group A, the rats were given scopolamine.
The rats were terminated by carbon-dioxide 4 h after centrifugation and the intestinal organs were examined. The presence of scopolamine or citalopram in the rat bodies was detected by spectrophotometrics and digital imaging as described in Goncalves, Diaz and Moses et al.

[2] = test system: headache caused by the red wine; assay: relief of red wine headache in voluntary humans; format: in vivo, human; settings: Group A: 40 mg (1/10 of normal oral dose) bonded to a carrier according to the invention
Procedure: A further test was performed on voluntary humans. The test was performed on a group of 19 persons. Each test person was given 2 L of red wine without gender discrimination. The wine was consumed during 3 hours the evening before testing. The following morning the individuals were divided into two groups A and B, respectively. Group A received 40 mg ( 1/10 of a normal orally administered dose) of ibumetine bonded to a carrier according to the invention. Group B where given an empty membrane with only sugar chains and no active substance. Group A felt a total relief of the headache caused by the red wine within 5 minutes, whereas group B felt no relief at all from the bare membrane with sugar chains. Group B where therefore treated with 400 mg ibumetine by conventional oral delivery. Various degrees of relief were noted after 45 min-1 h. The test procedure is diagrammatically illustrated in FIG. 3.

[3] = test system: motion sickness in White/white laboratory standard rats; assay: rat centrifuge motion sickness test; format: in vivo
Procedure: In test group A, the rats were given scopolamine.
Group B served as a control and was treated with uncoupled scopolamine and a starch matrix carrier without sugar chains.
The membrane size was 1×1 mm made out of starch. To this the labelled sugar chains were coupled and one membrane was put under the upper lip of each rat.
Three equally calibrated centrifuges were used in the test, one for each group of rats A, B, C. Each centrifuge was placed in a box having an entrance/exit through which the rats could move freely between their cage and the centrifuge box. The rats were first allowed to find their way into the centrifuge box before they were lifted up and placed in the centrifuge.
The rats were subsequently spun in the centrifuges at 3 G during 30 seconds.
After centrifugation, the ability of each group A, B, C to localize the exit in the centrifuge box and to return to the cage as well as general steadiness were observed.

[4] = White/white laboratory standard, 4 h

active substance in kidney or liver [1, 4]: over 75%
active substance in the brain [1, 4]: less than 4%
active substance in the brain ([1]; 4 h): 99%
active substance in the kidneys ([1]; 4 h): less than 0.1%
active substance in the liver ([1]; 4 h): less than 0.2%
SMILES: CN(C)CCCC1(c2ccc(F)cc2)OCc2cc(C#N)ccc21 (stereo not shown) [citalopram]

SMILES: CC(C)Cc1ccc(C(C)C(=O)O)cc1 (stereo not shown) [ibumetine]
time to total relief of the headache [2]: ≤ 5 min

SMILES: CN1[C@@H]2C[C@@H](OC(=O)[C@H](CO)c3ccccc3)C[C@H]1[C@@H]1O[C@@H]12 [scopolamine]
behaviour / signs of motion sickness after centrifugation ([3]; Group A: 1/10 of a normal dose bound by sugar chains to starch matrix, under upper lip, 3 G, 30 seconds): no change in normal behaviour
ability to localize the exit in the centrifuge box ([3]; Group A: 1/10 of a normal dose bound by sugar chains to starch matrix, 3 G, 30 seconds): managed to directly locate the exit
behaviour / signs of motion sickness after centrifugation ([3]; Group B: same amount of uncoupled substance with starch matrix without sugar chains, 3 G, 30 seconds): clear signs of motion sickness
ability to localize the exit in the centrifuge box ([3]; Group B: uncoupled substance, starch matrix without sugar chains, test period of 1 h): could not find the exit
active substance in kidney or liver ([1]; White/white laboratory standard): over 75%
active substance in the kidneys [1]: less than 0.1%
active substance in the liver [1]: less than 0.2%
